Six substances from patent publication US7504243B2, “Methods for the production of biliverdin” (The United States of America as represented by the …, priority 2004, dated 2009) can be followed below.

The assay concerns CaHMX1 promoter. Put plainly: Renilla luciferase reporter driven by the CaHMX1 promoter in knock-in strain CAMP Ki-29. The conditions noted are these: for Luciferase Activity: strain Ki-29, iron-replete medium, 30° C., 15 min, 1 mg/ml protein, mean±S.D. of two experiments, light units per 5×10^7 cells/assay point. It is filed as cell-based, Candida albicans. The source says: and cloning into pCR-BluntII TOPO (Invitrogen). The inserted fragment is then excised with SstI and PstI and cloned into plasmid pCRW3 (Srikantha, T. et al. (1996) “THE SEA PANSY RENILLA RENIFORMIS LUCIFERASE SERVES AS A SENSITIVE BIOLUMINESCENT REPORTER FOR DIFFERENTIAL GENE EXPRESSION IN CANDIDA ALBICANS,” J. Bacteriol. 178:121-129) using similar sites resulting in plasmid pPt14. This plasmid was linearized at the unique KpnI site in the CaHMX1 promoter (see, FIG. 2, Panel D) to enable recombination into the CaHMX1 genomic site in the C. albicans strain Red 3/6 (Srikantha, T. et al. (1996) “THE SEA PANSY RENILLA RENIFORMIS LUCIFERASE SERVES AS A SENSITIVE BIOLUMINESCENT REPORTER FOR DIFFERENTIAL GENE EXPRESSION IN CANDIDA ALBICANS,” J. Bacteriol. 178:121-129). […] This knock-in procedure is desirable because the reporter plasmid pPt14 is not functional when integrated into the Ade2 locus when introduced as an episome. The resulting strain, CAMP Ki-29, is used for all reporter assays discussed herein. The correct insertion sites of the preceding constructs in the genomes of strains CAMP 50 and CAMP Ki-29 are verified by Southern blotting.
Luciferase Assays—Reporter assays use C. albicans cells that are grown at 30° C. in minimal YNB medium with ammonium sulfate and 2% glucose. 5×10^7 cells were harvested, cell extracts were obtained by glass bead lysis (Srikantha, T. et al. (1996) “THE SEA PANSY RENILLA RENIFORMIS LUCIFERASE SERVES AS A SENSITIVE BIOLUMINESCENT REPORTER FOR DIFFERENTIAL GENE EXPRESSION IN CANDIDA ALBICANS,” J. Bacteriol. 178:121-129), and luminescence is determined using coelenterazine as a substrate (Promega). Luciferase activity is defined as the number of light units using 5×10^7 cells/assay point in 200 μl of lysis buffer using a 5-μl volume for light measurement. To assess regulation of the promoter by iron, the ferrous iron chelator ferrozine is added to cell cultures in the presence of FAS to buffer iron concentrations as described (Philpott, C. C. et al. (1998) “CELL-CYCLE ARREST AND INHIBITION OF G1 CYCLIN TRANSLATION BY IRON IN AFT1-1^UP YEAST,” EMBO J. 17, 5026-5036) (see also, Chaney, R. L. (1988) “PLANTS CAN UTILIZE IRON FROM IRON-N,N′-DI-2 HYDROXYBENZOYLETHYLENEDIAMINE-N,N′-DIACETIC ACID, A FERRIC CHELATE WITH 1,000,000 GREATER FORMATION CONSTANT THAN IRON-EDDHA,” J. Plant Nutr. 11, 1033-1050). FAS added to 1 mM ferrozine at 10, 100, and 400 μM represents low, optimal, and high levels of iron, respectively.
To ensure that this induction is specific for Hb, several control proteins are tested for their ability to stimulate luciferase activity in strain Ki-29 (Table 1). […] Therefore, the iron in Hb is not essential for activity, but the native conformation of globin induced by porphyrin binding is required.
(A reporter such as luciferase makes a cellular process visible.)

For hemin [reference compound], the “increase in activity over the iron-replete control when hemin is added to Hb combined with ferrozine” value (24 h, Hb 25 μM + ferrozine 100 μM + hemin 25 μM) was found to be 2.5 fold. Moreover, the “increase of CaHMX1 promoter activity by hemin after 24 h” value (CAMP Ki-29 cells, hemin 25 μM, 24 h) was “about 2 fold”. The “lag time before induction of promoter activity” value (iron-deficient medium, 25 μM hemin, extended time course) is given as 3 h.

On to “Apo-transferrin: control protein from Sigma”, for which the “Luciferase Activity” value was 64.4 ± 11.8.

“Holo-transferrin: ferroprotein transferrin, control protein from Sigma”: the “Luciferase Activity” value is 20.7 ± 0.55.

As for Fetuin: control protein from Sigma, the “Luciferase Activity” value was 59.3 ± 5.9.

Regarding “CoPPIX-globin: The cobalt analog of Hb; cobalt protoporphyrin IX substituted for the heme in globin”, the “Luciferase Activity” value is listed as 161.7 ± 24.

Take Casein: the “Luciferase Activity” value was found to be 38.6 ± 8.1.
